Among the data in patent publication US10562914B2, “Imidazoles as histone demethylase inhibitors” (Istituto Europeo di Oncologia S.r.l., priority 2016, dated 2020) are IC50 values, retold here.

Structures can show the parent of a compound that is named as a salt. Where only a bound is given, the exact number is not on record here.

In test [1] the target is T1, human recombinant KDM1A/CoREST protein (Homo sapiens, UniProt O60341).
T1 construct: made in house; host or cells: E. coli
Put plainly: Assay of enzyme inhibition of KDM1A (LSD1), TR-FRET. The test is classed as biochemical. Conditions: 0.25 nM KDM1A/CoREST, 50 nM H3K4 monomethylated peptide, 20 min at RT. The procedure:
2.1 Assay of Enzyme Inhibition of KDM1A (LSD1)
The intensity of the light emission is proportional to the level of biotinylated reaction product. The complex of human recombinant KDM1A/CoREST protein was produced in E. coli as separate proteins and co-purified as previously described.
Demethylase reaction was started by the addition of 50 nM histone H3K4 monomethylated.
The resulting mixture was incubated in the dark for 1 h at RT. Then, TR-FRET signal was read by a fluorimeter (Infinite® F200, Tecan, Männedorf, Swirzerland) (Excitation 320 nm, Emission 665 nm and 620 nm, delay time 50 μs, window time 100 μs).
The inhibitor concentrations ranged from 0.025 to 500 μM (serial 1:3 dilutions). The IC50 was calculated using GraphPad Software.

The next test concerns human leukemia NB4 cells. Put plainly: Cell growth, CellTiter-Fluor viability assay, NB4. The test is classed as cell-based. To be noted: NB-4, 48 h incubation, read-out: IC50 against human leukemia NB4 cells. The text has this:
(§1) CellTiter-Flor® (Promega) is as a nonlytic, single-reagent-addition fluorescence assay that measures the relative number of living cells in a culture population after experimental manipulation. The CellTiter-Fluor™ Cell Viability Assay measures the conserved and constitutive protease activity within live cells and therefore acts as a marker for cell viability.
(§2) Human leukemia MV4-11 cells, (obtained from the Deutsche Sammlung von Mikroorganismen und Zellkulturen, ACC 102) or NB4 cells, (obtained from the Deutsche Sammlung von Mikroorganismen und Zellkulturen) in exponential growth, were incubated for 48 h with different concentrations of the inhibitors. After 48 h a volume of CellTiter-Fluor® Reagent equal to one fifth of volume of cell culture medium was added. The content was mixed and incubates for at least 90 min at 37° C. degree to obtain a stable signal. The fluorescence was recorded using an excitation wavelength of 360 nm and an emission at 535 nm. The IC50 was calculated using GraphPad Software.

For test [2], the system named is Human leukemia MV4-11 cells. Put plainly: Cell growth, CellTiter-Fluor viability assay, MV4-11. The test is classed as cell-based. To be noted: 48 h incubation, read-out: IC50 against human leukemia MV4-11 cells.
Excerpt: as §1, §2

`CCc1cn(CCOc2ccc(OCC3CCNC3)cc2)c(-c2cc3sccc3n2C)n1` (stereo not drawn) [Example 22, 5-[4-ethyl-1-[2-[4-(pyrrolidin-3-ylmethoxy)phenoxy]ethyl]imidazol-2-yl]-4-methyl-thieno[3,2-b]pyrrole hydrochloride]: the concentration for half-maximal inhibition (IC50) is less than 0.1 µM in test [1], less than 20 µM in the test on human leukemia NB4 cells and less than 10 µM in test [2].

Take `Cn1c(-c2ncc(C3CCC3)n2CCOc2ccc(OC3CCNCC3)cc2)cc2sccc21` [Example 30, 5-[5-cyclobutyl-1-[2-[4-(4-piperidyloxy)phenoxy]ethyl]imidazol-2-yl]-4-methyl-thieno[3,2-b]pyrrole hydrochloride]: the IC50 in test [1] is less than 0.1 µM; in the test on human leukemia NB4 cells, less than 20 µM; in test [2], less than 10 µM.

On to `CCc1nc(-c2cc3sccc3n2C)n(CCOc2cccc(OC3CCNCC3)c2)c1-c1ccccc1` [Example 33, 5-[4-ethyl-5-phenyl-1-[2-[3-(4-piperidyloxy)phenoxy]ethyl]imidazol-2-yl]-4-methyl-thieno[3,2-b]pyrrole], for which the IC50 in test [1] is less than 0.1 µM; in the test on human leukemia NB4 cells, less than 20 µM; in test [2], less than 10 µM.

In the case of `CCc1cn(CCOc2cccc(OC3CCNCC3)c2)c(-c2cc3sccc3n2C)n1` [Example 18, 5-[4-ethyl-1-[2-[3-(4-piperidyloxy)phenoxy]ethyl]imidazol-2-yl]-4-methyl-thieno[3,2-b]pyrrole hydrochloride], the IC50 is less than 0.1 µM in test [1], less than 20 µM in the test on human leukemia NB4 cells and less than 10 µM in test [2].
